We go through 22 molecules from US9611267B2, “Substituted tricyclic compounds as FGFR inhibitors” (Incyte Corporation, priority 2012, dated 2017).

What all share (assay type): biochemical
The target of test [1] is FGFR3 (Homo sapiens (Human), UniProt P22607). Nature of the test: FGFR enzymatic assay (FRET peptide phosphorylation), FGFR3. The following applies: FGFR3 enzyme (Millipore), ATP 140 μM. As to the method: (§1) The inhibitor potency of the exemplified compounds was measured in an enzyme assay that measures peptide phosphorylation using FRET measurements to detect product formation. Inhibitors were serially diluted in DMSO and a volume of 0.5 μL was transferred to the wells of a 384-well plate. For FGFR3, a 10 μL volume of FGFR3 enzyme (Millipore) diluted in assay buffer (50 mM HEPES, 10 mM MgCl2, 1 mM EGTA, 0.01% Tween-20, 5 mM DTT, pH 7.5) was added to the plate and pre-incubated for 5-10 minutes. Appropriate controls (enzyme blank and enzyme with no inhibitor) were included on the plate. […] The plate was incubated at 25° C. for 1 hr. […] The plate was allowed to equilibrate for ˜1 hr before scanning the wells on a PheraStar plate reader (BMG Labtech).
(§2) GraphPad prism3 was used to analyze the data. The IC50 values were derived by fitting the data to the equation for a sigmoidal dose-response with a variable slope. Y=Bottom+(Top−Bottom)/(1+10^((LogIC50−X)*HillSlope)) where X is the logarithm of concentration and Y is the response.

In test [2] the target is FGFR2 (Homo sapiens (Human), UniProt P21802). Description: FGFR enzymatic assay (FRET peptide phosphorylation), FGFR2. The following applies: FGFR2 enzyme 0.01 nM, ATP 100 μM. Here is the method:
as §1
(§3) The enzymes were purchased from Millipore or Invitrogen.
as §2

In test [3] the target is FGFR1 (Homo sapiens (Human), UniProt P11362). Description: FGFR enzymatic assay (FRET peptide phosphorylation), FGFR1. To be noted: FGFR1 enzyme 0.02 nM, ATP 210 μM. Here is the method: as §1, §3, §2

Where only a bound is given, the exact number is not on record here.

As a reminder, the IC50 is the concentration at which inhibition is half-maximal.

Chain of FGFR2 (P21802 22-821): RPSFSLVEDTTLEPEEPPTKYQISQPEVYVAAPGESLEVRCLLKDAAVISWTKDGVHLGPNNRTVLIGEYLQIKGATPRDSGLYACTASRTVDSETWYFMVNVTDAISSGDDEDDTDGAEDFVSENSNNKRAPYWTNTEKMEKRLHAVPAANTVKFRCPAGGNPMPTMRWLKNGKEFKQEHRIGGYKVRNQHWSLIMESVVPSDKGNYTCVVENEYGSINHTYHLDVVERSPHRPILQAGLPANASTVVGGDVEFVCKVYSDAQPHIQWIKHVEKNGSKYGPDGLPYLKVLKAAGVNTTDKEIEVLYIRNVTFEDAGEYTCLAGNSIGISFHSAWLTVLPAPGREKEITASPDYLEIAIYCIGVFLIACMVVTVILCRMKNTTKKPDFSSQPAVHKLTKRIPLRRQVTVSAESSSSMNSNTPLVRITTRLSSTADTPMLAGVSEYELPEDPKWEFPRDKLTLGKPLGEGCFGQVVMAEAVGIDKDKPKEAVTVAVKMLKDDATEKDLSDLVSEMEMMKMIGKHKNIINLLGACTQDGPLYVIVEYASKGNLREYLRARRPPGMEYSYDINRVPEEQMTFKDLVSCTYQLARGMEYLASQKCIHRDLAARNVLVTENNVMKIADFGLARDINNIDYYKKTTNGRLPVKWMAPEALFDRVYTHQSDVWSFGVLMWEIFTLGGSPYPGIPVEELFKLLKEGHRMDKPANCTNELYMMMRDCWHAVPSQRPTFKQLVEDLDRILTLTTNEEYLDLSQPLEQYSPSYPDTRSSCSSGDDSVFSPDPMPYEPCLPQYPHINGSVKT
Chain of FGFR1 (P11362 22-822): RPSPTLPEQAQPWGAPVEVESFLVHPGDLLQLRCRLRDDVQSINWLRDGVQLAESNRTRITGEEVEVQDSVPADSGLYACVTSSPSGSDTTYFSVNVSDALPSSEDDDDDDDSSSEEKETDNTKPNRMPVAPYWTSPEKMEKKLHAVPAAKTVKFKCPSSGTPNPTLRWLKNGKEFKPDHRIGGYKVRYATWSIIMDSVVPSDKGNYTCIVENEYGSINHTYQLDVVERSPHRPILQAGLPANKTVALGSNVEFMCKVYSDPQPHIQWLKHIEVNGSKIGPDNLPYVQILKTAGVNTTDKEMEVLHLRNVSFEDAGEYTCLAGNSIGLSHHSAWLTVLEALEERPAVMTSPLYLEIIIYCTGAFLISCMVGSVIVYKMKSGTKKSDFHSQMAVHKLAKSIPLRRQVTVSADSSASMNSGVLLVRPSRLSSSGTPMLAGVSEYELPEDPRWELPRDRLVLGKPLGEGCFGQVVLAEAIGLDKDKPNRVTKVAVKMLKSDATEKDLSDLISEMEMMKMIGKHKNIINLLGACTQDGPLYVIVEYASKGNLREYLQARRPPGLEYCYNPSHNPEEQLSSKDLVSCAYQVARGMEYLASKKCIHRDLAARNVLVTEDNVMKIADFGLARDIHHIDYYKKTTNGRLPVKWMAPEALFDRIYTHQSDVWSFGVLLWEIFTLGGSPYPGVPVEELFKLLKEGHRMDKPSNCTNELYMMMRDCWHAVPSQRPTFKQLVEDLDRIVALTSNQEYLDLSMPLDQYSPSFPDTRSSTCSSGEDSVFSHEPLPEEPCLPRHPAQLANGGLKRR
Chain of FGFR3 (P22607 23-806): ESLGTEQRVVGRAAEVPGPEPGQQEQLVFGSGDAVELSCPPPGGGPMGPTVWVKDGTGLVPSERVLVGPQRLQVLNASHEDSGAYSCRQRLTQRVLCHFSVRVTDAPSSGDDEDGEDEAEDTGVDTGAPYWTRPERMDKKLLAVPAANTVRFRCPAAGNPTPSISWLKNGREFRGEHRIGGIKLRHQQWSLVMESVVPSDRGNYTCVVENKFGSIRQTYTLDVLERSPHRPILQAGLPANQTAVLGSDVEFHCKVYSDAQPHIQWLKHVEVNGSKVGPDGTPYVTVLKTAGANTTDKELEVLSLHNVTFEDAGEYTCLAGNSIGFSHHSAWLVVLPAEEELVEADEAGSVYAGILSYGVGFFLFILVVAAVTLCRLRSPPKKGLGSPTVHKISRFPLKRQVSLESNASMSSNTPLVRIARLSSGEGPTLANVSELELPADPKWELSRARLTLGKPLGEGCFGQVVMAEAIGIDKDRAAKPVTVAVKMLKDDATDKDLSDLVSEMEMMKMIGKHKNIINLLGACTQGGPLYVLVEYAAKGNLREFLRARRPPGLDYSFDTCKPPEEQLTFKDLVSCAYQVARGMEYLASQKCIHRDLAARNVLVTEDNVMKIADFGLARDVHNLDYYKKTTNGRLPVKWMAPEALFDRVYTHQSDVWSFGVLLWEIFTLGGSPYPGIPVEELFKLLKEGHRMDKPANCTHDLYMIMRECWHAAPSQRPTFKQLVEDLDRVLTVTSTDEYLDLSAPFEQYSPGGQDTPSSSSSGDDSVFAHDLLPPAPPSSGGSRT

On to `COc1cc(OC)c(F)c(N2Cc3cnc4[nH]ccc4c3N(c3ccccc3)C2=O)c1F` [Example 47, 3-(2,6-difluoro-3,5-dimethoxyphenyl)-1-phenyl-1,3,4,7-tetrahydro-2H-pyrrolo[3′,2′:5,6]pyrido[4,3-d]pyrimidin-2-one], for which the IC50 in test [1], in test [2] and in test [3] was < 100 nM each time.

Consider `COc1cc(OC)c(F)c(N2Cc3cnc4c(c3N(C3CC3)C2=O)CC(=O)N4)c1F` [Example 48, 1-Cyclopropyl-3-(2,6-difluoro-3,5-dimethoxyphenyl)-3,4,7,9-tetrahydro-1H-pyrrolo[3′,2′:5,6]pyrido[4,3-d]pyrimidine-2,8-dione], for which the IC50 in test [1], in test [2] and in test [3] was < 100 nM in each case.

For `CCN1C(=O)N(c2c(F)c(OC)cc(OC)c2F)Cc2cnc3c(c21)CC(=O)N3` [Example 49, 3-(2,6-Difluoro-3,5-dimethoxyphenyl)-1-ethyl-3,4,7,9-tetrahydro-1H-pyrrolo[3′,2′:5,6]pyrido[4,3-d]pyrimidine-2,8-dione], the IC50 in test [1], in test [2] and in test [3] was < 100 nM throughout.

Consider `COc1cc(OC)c(F)c(N2Cc3cnc4c(c3N(CC3CC3)C2=O)CC(=O)N4)c1F` [Example 50, 1-(Cyclopropylmethyl)-3-(2,6-difluoro-3,5-dimethoxyphenyl)-3,4,7,9-tetrahydro-1H-pyrrolo[3′,2′:5,6]pyrido[4,3-d]pyrimidine-2,8-dione], for which the IC50 in test [1], in test [2] and in test [3] was < 100 nM throughout.

`COc1cc(OC)c(F)c(N2Cc3cnc4[nH]ncc4c3N(C)C2=O)c1F` [Example 51, 3-(2,6-Difluoro-3,5-dimethoxyphenyl)-1-methyl-1,3,4,7-tetrahydro-2H-pyrazolo[4′,3′:5,6]pyrido[4,3-d]pyrimidin-2-one]: the IC50 in test [1], in test [2] and in test [3] was < 100 nM each time.

On to `COc1cc(OC)c(F)c(N2Cc3cnc4[nH]nc(C)c4c3N(C)C2=O)c1F` [Example 52, 3-(2,6-Difluoro-3,5-dimethoxyphenyl)-1,9-dimethyl-1,3,4,7-tetrahydro-2H-pyrazolo[4′,3′:5,6]pyrido[4,3-d]pyrimidin-2-one], for which the IC50 in test [1], in test [2] and in test [3] was < 100 nM each time.

Turning to `COc1cc(OC)c(F)c(N2Cc3cnc4[nH]nc(C#N)c4c3N(C)C2=O)c1F` [Example 53, 3-(2,6-Difluoro-3,5-dimethoxyphenyl)-1-methyl-2-oxo-2,3,4,7-tetrahydro-1H-pyrazolo[4′,3′:5,6]pyrido[4,3-d]pyrimidine-9-carbonitrile], the IC50 in test [1], in test [2] and in test [3] was < 100 nM in each case.

As to `COc1cc(OC)c(F)c(N2Cc3cnc4[nH]nc(CC#N)c4c3N(C)C2=O)c1F` [Example 54, [3-(2,6-Difluoro-3,5-dimethoxyphenyl)-1-methyl-2-oxo-2,3,4,7-tetrahydro-1H-pyrazolo[4′,3′:5,6]pyrido[4,3-d]pyrimidin-9-yl]acetonitrile], the IC50 in test [1], in test [2] and in test [3] was < 100 nM throughout.

Take `COc1cc(OC)c(F)c(N2Cc3cnc4[nH]nc(C5CCN(C)CC5)c4c3N(C)C2=O)c1F` [Example 55, 3-(2,6-Difluoro-3,5-dimethoxyphenyl)-1-methyl-9-(1-methylpiperidin-4-yl)-1,3,4,7-tetrahydro-2H-pyrazolo[4′,3′:5,6]pyrido[4,3-d]pyrimidin-2-one]: the IC50 in test [1], in test [2] and in test [3] was < 100 nM throughout.

`COc1cc(OC)c(F)c(N2Cc3cnc4[nH]nc(CCO)c4c3N(C)C2=O)c1F` [Example 56, 3-(2,6-Difluoro-3,5-dimethoxyphenyl)-9-(2-hydroxyethyl)-1-methyl-1,3,4,7-tetrahydro-2H-pyrazolo[4′,3′:5,6]pyrido[4,3-d]pyrimidin-2-one]: the IC50 in test [1], in test [2] and in test [3] was < 100 nM each time.

Turning to `CCN1C(=O)N(c2c(F)c(OC)cc(OC)c2F)Cc2cnc3[nH]ncc3c21` [Example 57, 3-(2,6-Difluoro-3,5-dimethoxyphenyl)-1-ethyl-1,3,4,7-tetrahydro-2H-pyrazolo[4′,3′:5,6]pyrido[4,3-d]pyrimidin-2-one], the IC50 in test [1], in test [2] and in test [3] was < 100 nM in each case.

Regarding `COc1cc(OC)c(F)c(N2Cc3cnc4[nH]ncc4c3N(CCO)C2=O)c1F` [Example 58, 3-(2,6-Difluoro-3,5-dimethoxyphenyl)-1-(2-hydroxyethyl)-1,3,4,7-tetrahydro-2H-pyrazolo[4′,3′:5,6]pyrido[4,3-d]pyrimidin-2-one], the IC50 in test [1], in test [2] and in test [3] was < 100 nM in each case.

Turning to `COc1cc(OC)c(F)c(N2Cc3cnc4[nH]ccc4c3CC2=O)c1F` [Example 60, 7-(2,6-difluoro-3,5-dimethoxyphenyl)-3,6,7,9-tetrahydro-8H-pyrrolo[2,3-c]-2,7-naphthyridin-8-one], the IC50 in test [1], in test [2] and in test [3] was < 100 nM throughout.

Regarding `COc1cc(OC)c(F)c(N2Cc3cnc4[nH]cnc4c3N(C)C2=O)c1F` [Example 61, 7-(2,6-difluoro-3,5-dimethoxyphenyl)-9-methyl-3,6,7,9-tetrahydro-8H-imidazo[4′,5′:5,6]pyrido[4,3-d]pyrimidin-8-one], the IC50 in test [1], in test [2] and in test [3] was < 100 nM throughout.

As for `COc1cc(OC)c(F)c(N2Cc3cnc4[nH]ncc4c3OC2=O)c1F` [Example 62, 3-(2,6-difluoro-3,5-dimethoxyphenyl)-4,7-dihydropyrazolo[4′,3′:5,6]pyrido[3,4-e][1,3]oxazin-2(3H)-one], the IC50 in test [1] is < 100 nM; in test [2] it was 100 to 500 nM; in test [3] it was 100 to 500 nM.

On to `COc1cc(OC)c(F)c(N2Cc3cnc4c(c3N(C3CCC3)C2=O)CC(=O)N4)c1F` [Example 64, 1-cyclobutyl-3-(2,6-difluoro-3,5-dimethoxyphenyl)-3,4,7,9-tetrahydro-1H-pyrrolo[3′,2′:5,6]pyrido[4,3-d]pyrimidine-2,8-dione], for which the IC50 in test [1], in test [2] and in test [3] was < 100 nM in each case.

For the molecule `COc1cc(OC)c(F)c(N2Cc3cnc4c(c3N(Cc3cccc(F)c3)C2=O)CC(=O)N4)c1F` [Example 65, 3-(2,6-difluoro-3,5-dimethoxyphenyl)-1-(3-fluorobenzyl)-3,4,7,9-tetrahydro-1H-pyrrolo[3′,2′:5,6]pyrido[4,3-d]pyrimidine-2,8-dione], the IC50 in test [1], in test [2] and in test [3] was < 100 nM throughout.

With `COc1cc(OC)c(F)c(N2Cc3cnc4[nH]ccc4c3C3(CC3)C2=O)c1F` [Example 66, 7′-(2,6-difluoro-3,5-dimethoxyphenyl)-6′,7′-dihydrospiro[cyclopropane-1,9′-pyrrolo[2,3-c][2,7]naphthyridin]-8′(3′H)-one], the IC50 in test [1], in test [2] and in test [3] was < 100 nM in each case.

Consider `COc1cc(OC)c(F)c(N2Cc3cnc4[nH]ccc4c3C(C)(C)C2=O)c1F` [Example 67, 7-(2,6-difluoro-3,5-dimethoxyphenyl)-9,9-dimethyl-3,6,7,9-tetrahydro-8H-pyrrolo[2,3-c]-2,7-naphthyridin-8-one], for which the IC50 in test [1], in test [2] and in test [3] was < 100 nM throughout.

Consider `COc1cc(OC)c(F)c(N2Cc3cnc4c(c3N(c3ccc(Cl)cc3F)C2=O)CC(=O)N4)c1F` [Example 68, 1-(4-chloro-2-fluorophenyl)-3-(2,6-difluoro-3,5-dimethoxyphenyl)-3,4,7,9-tetrahydro-1H-pyrrolo[3′,2′:5,6]pyrido[4,3-d]pyrimidine-2,8-dione], for which the IC50 in test [1], in test [2] and in test [3] was < 100 nM throughout.

As for `CCN1CCN(c2ccc(-c3n[nH]c4ncc5c(c34)N(C)C(=O)N(c3c(F)c(OC)cc(OC)c3F)C5)cc2)CC1` [Example 69, 3-(2,6-difluoro-3,5-dimethoxyphenyl)-9-[4-(4-ethylpiperazin-1-yl)phenyl]-1-methyl-1,3,4,7-tetrahydro-2H-pyrazolo[4′,3′:5,6]pyrido[4,3-d]pyrimidin-2-one], the IC50 in test [1], in test [2] and in test [3] was < 100 nM in each case.

On to `CCN1CCN(Cc2cc3c4c(cnc3[nH]2)CN(c2c(F)c(OC)cc(OC)c2F)C(=O)N4C)CC1` [Example 70, 3-(2,6-difluoro-3,5-dimethoxyphenyl)-8-[(4-ethylpiperazin-1-yl)methyl]-1-methyl-1,3,4,7-tetrahydro-2H-pyrrolo[3′,2′:5,6]pyrido[4,3-d]pyrimidin-2-one], for which the IC50 in test [1], in test [2] and in test [3] was < 100 nM throughout.
